Experimental data from article PMC11123961, “Design, Synthesis, and Biological Evaluation of the Quorum-Sensing Inhibitors of Pseudomonas aeruginosa PAO1” (Molecules, 2024).
Like-named read-outs stand apart in the source and are kept apart here.

What was measured:
C. violaceum CV026 QS [1] = tested on: C. violaceum CV026 QS; set-up: method as in earlier work; settings: lead compound, value of Zhao; cited from earlier work
C. violaceum CV026 QS [2] = assay: Half-maximal inhibitory concentration against C. violaceum CV026 QS (suppression of violacein production); type: cell-based; settings: Chromobacterium violaceum; C6-HSL-induced violacein production, 12 h; mean ± SD of three independent tests; read-out: IC50, anti-CV026 QS activity
Source text: In the exploration of the QS inhibitions, C. violaceum CV026, a mini-T5 mutant of C. violaceum ATCC31532, is frequently employed as a biosensor strain. Because C. violaceum CV026 lacks the CviI gene, which directs the synthesis of AHLs, it is unable to manufacture violacein on its own. The violacein reaction can be induced in C. violaceum CV026 by adding exogenous C6-HSL [27]. As a result, the violacein reaction in C. violaceum CV026 can be used to assess the compounds’ suppression of QS, as used in this investigation.
3.2.2. The Half-Maximal Inhibitory Concentration (IC50) of Compounds against C. violaceum CV026 QS [36]
Subsequently, the log phase of C. violaceum CV026 was placed in a 12-well plate (2 mL/well) after being diluted 10-fold with fresh LB medium. The experimental group received 15 μL of the diluted inducer C6-HSL (0.125 mM), and 8 μL of each dilution gradient compound was added to each well, while the positive control group received 8 μL of C10-HSL, and the blank control group received 8 μL of LB medium. The plates were incubated at 30 °C and 130 rpm for 12 h. After centrifuging 1 mL of the culture for 10 min at 11,255 g, the supernatant was discarded. After dissolving the violacein with 500 μL of DMSO, the mixture was centrifuged once more at 11,255 g for 10 min. In order to measure the absorbance at 585 nm, 200 μL of the upper pigment was added to a 96-well plate. The IC50 was calculated using GraphPad Prism 5 according to the formula (absorbance at 585 nm of the test concentration/the absorbance of the control at 585 nm × 100%).

[3] = tested on: P. aeruginosa PAO1 biofilms; assay: Biofilm quantification, crystal violet assay; type: cell-based, Pseudomonas aeruginosa; settings: for inhibition at 20.3125 µM / inhibition at 40.625 µM / inhibition at 81.25 µM / inhibition at 162.5 µM / inhibition at 325 µM: Pseudomonas aeruginosa, PAO1, 20 h, read-out: Inhibition ratio of biofilm; for inhibition at 20.3125 µM: concentration 20.3125 (unit not given in Table S1; μM in method); for inhibition at 40.625 µM: concentration 40.625 (unit not given in Table S1; μM in method); for inhibition at 81.25 µM: concentration 81.25 (unit not given in Table S1; μM in method); for inhibition at 162.5 µM: concentration 162.5 (unit not given in Table S1; μM in method); for inhibition at 325 µM: concentration 325 (unit not given in Table S1; μM in method)
Experimental: 3.2.3. Biofilm Quantification Assays
The crystal violet assay was used to quantitatively analyze the biofilm, as previously described. P. aeruginosa PAO1 log phase was diluted 100 times with fresh LB medium and incubated for 3.5 h at 37 °C and 150 rpm. After that, the P. aeruginosa PAO1 bacterial culture was added to the 96-well plate. P. aeruginosa PAO1 bacterial culture in 90 μL was added to the experimental group, and 10 μL of the test compound at a final concentration of 325 μM, 162.5 μM, 81.25 μM, 40 μM, 20 μM, and 10 μM. Each well received 100 μL of bacterial culture for the control group and 100 μL of fresh LB medium for the blank group. After 20 h of incubation at 37 °C, the bacterial culture was removed from the 96-well plate, and it was dried after three PBS washes. Each well received […] of 0.1% crystal violet (CV) for a 15 min staining period. Each well was washed three times with PBS after the CV was removed. Lastly, each well received 150 μL of 33% glacial acetic acid, and a Biotek multi-function microplate reader was used to measure the absorbance value at 595 nm. The biofilm inhibition rate was calculated as follows = (OD595 blank − OD595 sample)/OD595 blank × 100%.

[4] = tested on: wildtype Caenorhabditis elegans N2 infected with P. aeruginosa PAO1; assay: C. elegans survival assay; type: in vivo; settings: after 48 h; agent alone: Y-31 162.5 μM, Tob 0.25 μg/mL
Source text: 3.2.7. C. elegans Survival Assay
The negative control was the PGS agar plate coated with E. Coli OP50. Next, 50 wildtype C. elegans N2 strain-synchronized nematodes (L4 stage) were chosen and placed onto the plates. […] When the nematodes in the study were immobile, they were deemed dead. The number of nematodes that survived was tabulated to generate a survival curve.

C. violaceum CV026 QS [5] = assay: Half-maximal inhibitory concentration against C. violaceum CV026 QS (suppression of violacein production); type: cell-based; settings: qualitative preliminary screening

| SMILES | IC50 (C. violaceum CV026 QS [2]) [µM] | inhibition at 20.3125 µM [3] [%] | inhibition at 40.625 µM [3] [%] | inhibition at 81.25 µM [3] [%] | inhibition at 162.5 µM [3] [%] | inhibition at 325 µM [3] [%] | C. violaceum CV026 QS inhibitory activity (first assessment) (C. violaceum CV026 QS [5]) | further results |
| --- | --- | --- | --- | --- | --- | --- | --- | --- |
| O=C(NN1CCOC1=O)c1ccccc1 [AOZ-1] | – | – | – | – | – | – | – | IC50 (C. violaceum CV026 QS [1]): > 200 µM |
| CCCCCCCCCC(=O)N[C@H]1CCOC1=O [C10-HSL, reference compound] | 0.15 ± 0.024 | -4.35 | 2.25 | 0.25 | 6.3 | -18.8 | – | Effect on the biofilm of P. aeruginosa PAO1 ([3]; crystal violet assay): no significant inhibitory effect |
| NC[C@H]1O[C@H](O[C@H]2[C@H](O)[C@@H](O[C@H]3O[C@H](CO)[C@@H](O)[C@H](N)[C@H]3O)[C@H](N)C[C@@H]2N)[C@H](N)C[C@@H]1O [Tob, Tobramycin, reference compound] | – | – | – | – | – | – | – | Improvement of the survival rate of infected nematodes (average) [4]: 63.33% |
| O=C(CCCOc1ccc2ccncc2c1)NN1CCOC1=O [Y-1] | 199 ± 13.9 | – | – | – | – | – | inhibited | – |
| COc1ccc(OCCCC(=O)NN2CCOC2=O)cc1 [Y-3] | 208 ± 7.26 | – | – | – | – | – | inhibited | – |
| O=C(CCCCOc1ccc(Br)cc1)NN1CCCOC1=O [Y-4] | > 260 | – | – | – | – | – | – | – |
| O=C(CCCOc1ccc(-c2ccccc2)cc1)NN1CCOC1=O [Y-5] | 125 ± 16.1 | – | – | – | – | – | – | – |
| O=C(CCCOc1ccc(Br)cc1)NN1CCCOC1=O [Y-6] | > 260 | – | – | – | – | – | – | – |
| O=C(CCCOc1ccc(Br)nc1)NN1CCOC1=O [Y-9] | 168 ± 7.28 | – | – | – | – | – | inhibited | – |
| O=C(CCCOc1cnc(Br)cn1)NN1CCOC1=O [Y-15] | 91.3 ± 3.02 | 6.73 | 27 | 36.8 | 33.9 | 32.1 | inhibited | – |
| CCCCc1ccc(OCCCC(=O)NN2CCOC2=O)cc1 [Y-17] | > 260 | – | – | – | – | – | – | – |
| CC(C)(C)Oc1ccc(OCCCC(=O)NN2CCOC2=O)cc1 [Y-18] | > 260 | – | – | – | – | – | – | – |
| CCc1ccc(OCCCC(=O)NN2CCOC2=O)cc1 [Y-19] | 153 ± 8.78 | – | – | – | – | – | – | – |
| O=C(CCCOc1ccc(C(F)(F)F)cc1)NN1CCOC1=O [Y-25] | 62.6 ± 3.27 | 18.8 | 32.2 | 33.4 | 39.9 | 32.2 | inhibited | – |
| O=C(CCCOc1ccc(I)cc1)NN1CCOC1=O [Y-26] | 27.6 ± 1.25 | 2.17 | 33.5 | 42.5 | 44.6 | 38.7 | inhibited | – |
| O=C(CCCOc1ccccc1)NN1CCOC1=O [Y-28] | 232 ± 5.84 | – | – | – | – | – | inhibited | – |
| O=C(CCCOc1ccc2ccccc2c1)NN1CCOC1=O [Y-29] | 26.1 ± 2.52 | 9.51 | 32.7 | 34.7 | 40.9 | 9.07 | inhibited | – |
| O=C(CCCOc1cccc2ccccc12)NN1CCOC1=O [Y-37] | 102 ± 4.36 | 15.3 | 35.1 | 36.4 | 28.7 | 18.2 | – | – |
| CC(C)c1ccc(OCCCC(=O)NN2CCOC2=O)cc1 [Y-38] | > 260 | – | – | – | – | – | – | – |
| O=C(CCCSc1ccc(Br)cc1)NN1CCOC1=O [Y-39] | 47.4 ± 1.74 | 12.9 | 23.4 | 28.4 | 24.9 | 21.2 | – | – |
| Cc1ccc(OCCCC(=O)NN2CCOC2=O)c(C)c1 [Y-40] | 180.5 ± 1.77 | – | – | – | – | – | – | – |
